Measured values from ChEMBL document CHEMBL1201862, “PubChem BioAssay data set” (2004).
The source made the active and inactive calls.

Columns and labels:
HeLa = assay: HeLa cell cytotoxicity, dose response, cytotoxicity control for MITF activator project, CellTiter-Glo luminescence, cherry-pick samples (AID 540259); assay type: functional, cell-based; details: Homo sapiens
[1] = Shn3 3'UTR reporter inhibitors, dose response, cell-based, Clone20 osteoblasts, firefly luciferase, cherry-picked (AID 624132); assay type: functional;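 note: firefly luciferase luminescence from reporter carrying the Shn3 3'UTR in osteoblasts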
[2] = control 3'UTR Renilla luciferase suppression, dose response, counter-screen for Shn3 inhibitor project, cell-based, Clone20-Shn3RL, cherry-picked (AID 624133); assay type: functional
INS1 = assay: beta cell apoptosis inhibitors, cytokine rescue, dose response, luminescence, retest (AID 449756); assay type: functional, cell-based; details: Rattus norvegicus;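 note: cell death triggered by IL-1 beta plus TNF-alpha plus IFN-gamma mixture; protective hits raise ATP signal compared with cytokine alone wells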
CHO = assay: cytotoxicity in TLR9-MyD88 CHO cells, dose response, cytotoxicity control for TLR9-MyD88 binding inhibitor project, cell-based, luminescence (AID 588339); assay type: functional, hamster; details: Cricetulus griseus;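 note: CHO cells stably coexpressing TLR9 and MyD88 fusions from primary screen; compound exposure lasted 48 hours before viability readout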
[3] = microbe, parasite or virus in culture; assay type: functional; details: Mycobacterium tuberculosis
[4] = HepG2 cell cytotoxicity, dose response, cytotoxicity control for Shn3 inhibitor project, CellTiter-Glo, cherry-picked (AID 624134); assay type: functional, cell-based
[5] = biological target: Heat shock protein HSP 90-alpha (Homo sapiens, UniProt P07900); assay type: functional, organism-based
[6] = biological target: Voltage-gated inwardly rectifying potassium channel KCNH2 (Homo sapiens, UniProt Q12809); details: Potency;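 note: confirmatory quantitative high-throughput screen measuring inhibition of hERG channel activity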
[7] = biological target: T1, Mannose-6-phosphate isomerase (Homo sapiens, UniProt P34949); assay: PMI enzyme inhibitors, confirmation, biochemical, fluorescence intensity (AID 1535)
T1 sequence (P34949 whole entry): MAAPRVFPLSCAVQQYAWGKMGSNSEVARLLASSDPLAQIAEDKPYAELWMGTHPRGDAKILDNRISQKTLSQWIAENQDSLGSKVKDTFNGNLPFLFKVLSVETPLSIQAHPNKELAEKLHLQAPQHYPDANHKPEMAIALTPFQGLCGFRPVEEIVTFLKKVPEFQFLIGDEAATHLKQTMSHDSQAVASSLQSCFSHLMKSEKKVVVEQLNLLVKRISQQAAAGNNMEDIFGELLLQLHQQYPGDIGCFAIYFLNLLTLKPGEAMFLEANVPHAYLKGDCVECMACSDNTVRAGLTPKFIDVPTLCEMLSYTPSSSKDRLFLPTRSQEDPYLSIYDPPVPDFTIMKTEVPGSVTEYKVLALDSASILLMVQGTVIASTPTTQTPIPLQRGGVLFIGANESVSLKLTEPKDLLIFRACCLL

Phosphomannomutase 2 = biological target: T2, Phosphomannomutase 2 (Homo sapiens, UniProt O15305); assay: Counter screen SAR assay for PMM2 inhibitors via a fluorescence intensity assay. [Related pubchem assays (depositor defined):AID1545, AID1574]
T2 sequence (O15305 whole entry): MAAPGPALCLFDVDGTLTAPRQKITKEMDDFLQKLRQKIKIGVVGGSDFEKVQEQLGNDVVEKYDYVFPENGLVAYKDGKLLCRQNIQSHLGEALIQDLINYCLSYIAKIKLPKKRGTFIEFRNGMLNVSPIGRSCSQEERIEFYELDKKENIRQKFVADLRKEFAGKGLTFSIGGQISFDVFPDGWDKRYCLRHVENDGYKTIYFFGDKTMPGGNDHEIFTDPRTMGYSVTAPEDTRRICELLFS

[8] = biological target: T1, Mannose-6-phosphate isomerase; assay: human PMI inhibitors, high substrate, primary screen, biochemical, fluorescence intensity, high mannose 6-phosphate (AID 1220)
[9] = biological target: Eukaryotic translation initiation factor 4E (Mus musculus, UniProt P63073); assay: eIF4E–eIF4G protein interaction inhibitors, dose response, biochemical, TR-FRET (AID 855); assay type: functional;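 note: potency for disrupting eIF4E binding to eIF4GI seen as loss of FRET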
[10] = biological target: T3, Dual specificity protein phosphatase 6 (Rattus norvegicus, UniProt Q64346); assay type: functional;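 note: confirmatory in vitro dose-response testing of MKP-3 inhibition; recombinant His-tagged MKP-3 made in E. coli BL21 with OMFP substrate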
T3 sequence (Q64346 whole entry): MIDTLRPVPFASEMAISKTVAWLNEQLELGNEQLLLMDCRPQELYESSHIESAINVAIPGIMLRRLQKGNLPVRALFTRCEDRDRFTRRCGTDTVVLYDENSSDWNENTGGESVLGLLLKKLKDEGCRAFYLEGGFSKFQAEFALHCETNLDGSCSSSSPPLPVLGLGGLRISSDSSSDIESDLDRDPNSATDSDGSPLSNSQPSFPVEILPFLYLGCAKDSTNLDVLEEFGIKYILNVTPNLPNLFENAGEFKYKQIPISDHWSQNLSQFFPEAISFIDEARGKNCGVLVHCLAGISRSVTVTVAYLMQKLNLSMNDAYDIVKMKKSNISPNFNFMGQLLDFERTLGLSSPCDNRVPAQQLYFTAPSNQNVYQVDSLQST

[11] = biological target: Dual specificity protein phosphatase 3 (Homo sapiens, UniProt P51452); assay: SAR VHR1 Fluorescent Assay for In Vitro dose response studies Set 2. [Related pubchem assays (depositor defined):AID1654, AID1661, AID1878]; assay type: functional
Hexokinase-1 = biological target: T4, Hexokinase-1 (Homo sapiens, UniProt P19367); assay: SAR analysis of small molecule inhibitors of hexokinase domain containing I (HKDC1) in the hexokinase 1 selectivity assay. [Related pubchem assays (depositor defined):AID493160, AID493190]; assay type: functional
T4 sequence (P19367 whole entry): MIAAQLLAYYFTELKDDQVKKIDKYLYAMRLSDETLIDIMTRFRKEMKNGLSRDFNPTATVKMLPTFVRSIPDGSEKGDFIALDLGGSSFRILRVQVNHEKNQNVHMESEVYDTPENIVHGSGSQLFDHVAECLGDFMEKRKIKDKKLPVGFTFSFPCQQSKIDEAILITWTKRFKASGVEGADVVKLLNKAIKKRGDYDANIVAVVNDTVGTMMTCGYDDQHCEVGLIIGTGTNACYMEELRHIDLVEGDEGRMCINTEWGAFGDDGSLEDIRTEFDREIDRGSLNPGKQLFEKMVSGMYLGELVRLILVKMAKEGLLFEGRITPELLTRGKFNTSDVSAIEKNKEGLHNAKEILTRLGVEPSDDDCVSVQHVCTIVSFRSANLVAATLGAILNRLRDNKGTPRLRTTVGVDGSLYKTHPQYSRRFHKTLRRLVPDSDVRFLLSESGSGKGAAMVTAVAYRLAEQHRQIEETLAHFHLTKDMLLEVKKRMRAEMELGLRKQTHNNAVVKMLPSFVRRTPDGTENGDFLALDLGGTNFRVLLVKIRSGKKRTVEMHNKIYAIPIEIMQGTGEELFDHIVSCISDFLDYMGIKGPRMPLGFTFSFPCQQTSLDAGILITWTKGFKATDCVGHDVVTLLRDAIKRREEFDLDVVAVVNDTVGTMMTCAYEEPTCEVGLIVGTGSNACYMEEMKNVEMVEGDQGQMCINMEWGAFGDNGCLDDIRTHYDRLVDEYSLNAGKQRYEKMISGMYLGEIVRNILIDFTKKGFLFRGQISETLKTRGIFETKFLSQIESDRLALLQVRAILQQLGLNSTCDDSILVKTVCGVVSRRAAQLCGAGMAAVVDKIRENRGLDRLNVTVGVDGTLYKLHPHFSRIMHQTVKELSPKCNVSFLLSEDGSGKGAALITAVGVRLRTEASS

Hexokinase HKDC1 = biological target: T5, Hexokinase HKDC1 (Homo sapiens, UniProt Q2TB90); assay: SAR analysis of small molecule inhibitors of hexokinase domain containing I (HKDC1). [Related pubchem assays (depositor defined):AID493160, AID493190]; assay type: functional
T5 sequence (Q2TB90 whole entry): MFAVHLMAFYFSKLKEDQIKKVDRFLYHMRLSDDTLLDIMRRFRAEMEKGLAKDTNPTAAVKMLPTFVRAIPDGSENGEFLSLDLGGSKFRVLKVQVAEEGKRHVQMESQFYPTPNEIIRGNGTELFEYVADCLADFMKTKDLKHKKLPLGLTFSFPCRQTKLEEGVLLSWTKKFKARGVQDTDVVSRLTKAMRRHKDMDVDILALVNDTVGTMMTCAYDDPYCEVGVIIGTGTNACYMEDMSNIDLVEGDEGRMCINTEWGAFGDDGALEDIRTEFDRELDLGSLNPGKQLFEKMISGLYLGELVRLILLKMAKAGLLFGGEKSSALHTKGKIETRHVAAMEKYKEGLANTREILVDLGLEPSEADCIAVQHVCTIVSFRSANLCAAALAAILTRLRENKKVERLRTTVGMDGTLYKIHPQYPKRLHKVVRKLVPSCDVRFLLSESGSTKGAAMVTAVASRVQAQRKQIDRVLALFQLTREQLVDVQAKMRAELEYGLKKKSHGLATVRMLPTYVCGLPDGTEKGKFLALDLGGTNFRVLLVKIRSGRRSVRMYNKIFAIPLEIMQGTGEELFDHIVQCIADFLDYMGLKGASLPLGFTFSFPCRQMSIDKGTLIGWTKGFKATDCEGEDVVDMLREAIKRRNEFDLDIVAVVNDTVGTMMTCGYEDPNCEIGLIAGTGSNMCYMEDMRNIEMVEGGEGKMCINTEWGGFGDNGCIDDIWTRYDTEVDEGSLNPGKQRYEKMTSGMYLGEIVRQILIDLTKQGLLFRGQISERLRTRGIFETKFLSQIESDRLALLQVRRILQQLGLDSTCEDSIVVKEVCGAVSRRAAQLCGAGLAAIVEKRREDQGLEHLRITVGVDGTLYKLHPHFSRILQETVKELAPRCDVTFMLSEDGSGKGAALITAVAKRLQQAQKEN

Candida albicans [12] = assay: growth inhibition of resistant C. albicans, dose response, CaCi-8 strain, fluconazole, dry powder, set 4 (AID 488950); assay type: functional, organism-based
Candida albicans [13] = assay: fluconazole resistance reversal in C. albicans, dose response, CaCi-2 strain, Alamar Blue, dry powder, set 4 (AID 488943); assay type: functional, organism-based
Candida albicans [14] = assay: growth inhibition of azole-resistant C. albicans, dose response, CaCi-8 strain, Alamar Blue, dry powder, set 2 (AID 488909); assay type: functional, organism-based

Chain of Voltage-gated inwardly rectifying potassium channel KCNH2 (Q12809 whole entry): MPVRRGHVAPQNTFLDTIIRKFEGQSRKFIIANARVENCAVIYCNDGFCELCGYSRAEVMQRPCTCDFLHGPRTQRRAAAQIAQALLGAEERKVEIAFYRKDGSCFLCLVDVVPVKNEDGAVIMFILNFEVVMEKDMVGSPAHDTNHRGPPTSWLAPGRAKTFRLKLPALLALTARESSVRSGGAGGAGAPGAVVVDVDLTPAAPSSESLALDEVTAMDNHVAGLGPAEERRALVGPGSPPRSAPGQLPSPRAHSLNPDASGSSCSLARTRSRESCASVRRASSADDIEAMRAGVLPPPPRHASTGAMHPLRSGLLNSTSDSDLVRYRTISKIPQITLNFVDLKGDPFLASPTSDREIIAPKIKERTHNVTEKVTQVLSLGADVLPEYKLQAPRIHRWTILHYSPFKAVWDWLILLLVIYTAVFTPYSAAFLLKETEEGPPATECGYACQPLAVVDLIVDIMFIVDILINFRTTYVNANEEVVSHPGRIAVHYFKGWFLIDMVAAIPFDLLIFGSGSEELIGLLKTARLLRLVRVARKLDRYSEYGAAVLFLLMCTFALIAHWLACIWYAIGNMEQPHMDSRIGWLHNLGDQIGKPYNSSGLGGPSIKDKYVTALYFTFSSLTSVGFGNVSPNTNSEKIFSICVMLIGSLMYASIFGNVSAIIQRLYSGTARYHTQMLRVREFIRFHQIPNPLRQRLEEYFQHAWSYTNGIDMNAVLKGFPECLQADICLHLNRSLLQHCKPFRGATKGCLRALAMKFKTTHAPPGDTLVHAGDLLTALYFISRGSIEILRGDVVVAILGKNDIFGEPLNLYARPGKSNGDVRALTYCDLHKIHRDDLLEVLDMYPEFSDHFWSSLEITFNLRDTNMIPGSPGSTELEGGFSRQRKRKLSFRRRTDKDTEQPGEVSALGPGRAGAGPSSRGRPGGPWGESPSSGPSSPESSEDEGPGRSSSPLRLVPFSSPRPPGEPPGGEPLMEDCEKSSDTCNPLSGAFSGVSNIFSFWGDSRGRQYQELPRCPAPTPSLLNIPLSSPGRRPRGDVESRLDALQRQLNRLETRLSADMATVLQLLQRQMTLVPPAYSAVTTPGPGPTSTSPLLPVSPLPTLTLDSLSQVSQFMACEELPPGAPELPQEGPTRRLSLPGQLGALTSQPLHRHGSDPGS
Chain of Eukaryotic translation initiation factor 4E (P63073 whole entry): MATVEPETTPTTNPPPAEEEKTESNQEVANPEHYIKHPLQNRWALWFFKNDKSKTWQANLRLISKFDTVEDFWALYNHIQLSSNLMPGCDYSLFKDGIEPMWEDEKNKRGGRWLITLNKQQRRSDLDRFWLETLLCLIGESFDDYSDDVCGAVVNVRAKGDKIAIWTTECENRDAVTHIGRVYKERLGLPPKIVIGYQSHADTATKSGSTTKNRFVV
Chain of Dual specificity protein phosphatase 3 (P51452 whole entry, the tested form may be a part): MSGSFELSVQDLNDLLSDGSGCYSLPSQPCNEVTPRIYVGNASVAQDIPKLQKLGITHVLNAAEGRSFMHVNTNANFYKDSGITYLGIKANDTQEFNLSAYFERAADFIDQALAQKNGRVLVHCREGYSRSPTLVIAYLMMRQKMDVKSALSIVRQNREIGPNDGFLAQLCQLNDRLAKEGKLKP

For COc1nc(C)ccc1-c1noc(-c2ccncc2)n1, the AC50 (HeLa) was 40 µM (active).

With N=C(NOC(=O)C12CC3CC(CC(C3)C1)C2)c1ccccn1 the AC50 (HeLa) was 27.5 µM (active).

In the case of Cc1ccc(-n2c(Cl)c(Cl)nc(Cl)c2=O)cc1, the AC50 [1] is reported as 1.77 µM (active), the AC50 [2] is reported as 3.58 µM (active) and the AC50 (INS1) is reported as 4.43 µM (active). For the same compound, the IC50 (CHO) was 1.39 µM (active), the CC50 [3] was 39.1 µM (active) and the AC50 [4] was 8.89 µM (active). The AC50 [5] was 1.38 µM (active).

For Cc1ccccc1C(N)=O, the AC50 [6] was 35.5 µM (inconclusive).

For Cc1nn(-c2ccccc2)c(S)c1C=Nc1cccc([N+](=O)[O-])c1, the IC50 [7] was 31.1 µM (active) and the IC50 (Phosphomannomutase 2) was > 100 µM (inactive).

For Clc1ccc(/N=c2\ssnc2Cl)cc1, the IC50 [7] was 12.5 µM (active), the IC50 [8] was > 50 µM (not active) and the IC50 (Phosphomannomutase 2) was > 100 µM (inactive). For the same compound, the AC50 [5] was 8.4 µM (active) and the IC50 [9] was 28.2 µM (active).

With NS(=O)(=O)c1cc(C(=O)NC2CCOc3ccccc32)ccc1Cl (stereo not given) the IC50 [10] was > 100 µM (inactive) and the IC50 [11] was > 100 µM (inactive).

For O=c1c2ccccc2nc(/C=C/c2cccnc2)n1Cc1cccc(Cl)c1, the IC50 (Hexokinase-1) was > 80 µM (inactive) and the IC50 (Hexokinase HKDC1) was > 80 µM (inactive).

In the case of Cc1cc(N2CCN(C(=O)c3ccc(Cl)cc3)CC2)c2ccc(F)cc2n1, the AC50 (Candida albicans [12]) is reported as 14.4 µM (active), the AC50 (Candida albicans [13]) is reported as 15.8 µM (active) and the AC50 (Candida albicans [14]) is reported as 49.3 µM (active).

For Cc1ccccc1N1C(=O)c2cc(S(N)(=O)=O)c(Cl)cc2NC1C (stereo not given) [METOLAZONE], the AC50 [6] was 0.112 µM (inconclusive).
